Reference: patent US20240246920A1, “TRIAZOLE DERIVATIVES WITH ANTIFUNGAL ACTIVITY” (King's College London, priority 2020, published 2024)
Values after ≈ are worked out from the molar mass of the structure shown. Read-outs that look alike come from different tables or passages of the source.

Key:
C. albicans NCPF3281 = assay: Candida panel MIC, serial dilution in 96-well plates; assay type: cell-based, Candida albicans; conditions: NCPF3281, read-out: MIC C. albicans NCPF3281
Outline: (§1)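 Broth microdilution in RPMI 1640/MOPS/2% glucose, pH 7.0, compound serially diluted from 128 to 0.25 μg/mL. Inoculum 0.5-5×10^5/mL from overnight 37 °C cultures; plates incubated 24 h at 37 °C. Growth read at OD530; MIC is lowest concentration giving ≥50% inhibition versus drug-free growth control.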

C. krusei NCPF3876 = assay: microbe, parasite or virus in culture; assay type: cell-based, Candida krusei; conditions: Pichia kudriavzevii
Outline: (§2)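 MIC taken as lowest concentration inhibiting growth ≥50% relative to drug-free control, from OD530 after 24 hours at 37° C. Fungi at 0.5-5×10^5/mL were exposed to serially diluted compound in RPMI 1640/MOPS/2% glucose medium adjusted to pH 7.0.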

C. parapsilosis NCPF3209 = assay: microbe, parasite or virus in culture; assay type: cell-based, Candida parapsilosis; conditions: Lodderomyces parapsilosis
Outline: as §2

Candida auris TDG2211 = assay: microbe, parasite or virus in culture; assay type: cell-based; conditions: Candidozyma auris
Outline: (§3)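 MIC is the lowest concentration inhibiting growth by ≥50% relative to the drug-free control, read at OD530 nm after 24 hours at 37° C. Fungi were seeded at 0.5-5×10^5/mL in MOPS-buffered RPMI 1640 with 2% glucose, pH 7.0; compounds came from DMSO solutions diluted in media.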

Candida auris TDG2506 = assay: microbe, parasite or virus in culture; assay type: cell-based; conditions: Candidozyma auris
Outline: as §3

C. auris TDG1912 = assay: Candida panel MIC, serial dilution in 96-well plates; assay type: cell-based; conditions: Candidozyma auris, TDG1912; Table 4; 24 hours, ≥50% inhibition; read-out: MIC C. auris TDG1912
Outline: as §1

C. tropicalis NCPF8760 = assay: as above; assay type: cell-based
Outline: as §1

Candida auris TDG1102 = assay: as above; assay type: cell-based; conditions: Candidozyma auris, TDG1102; Table 4, extended panel; 24 hours, ≥50% inhibition; read-out: MIC Candida auris TDG1102
Outline: as §1

Candida auris TDG2512 = assay: as above; assay type: cell-based; conditions: Candidozyma auris, TDG2512; Table 4, extended panel; 24 hours, ≥50% inhibition; read-out: MIC Candida auris TDG2512
Outline: as §1

panel of Candida species = assay: Candida panel MIC, statements on the whole panel; assay type: cell-based; conditions: in words
Method: (§4) The minimum inhibitory concentration of test compounds were determined in a panel of Candida species (see Table 4 below), using the a serial dilution method in 96-well plates using the following protocol.
(§5) Starter cultures of fungal strains to be tested were grown in 3 mL of RPMI 2% glucose media incubated at 37° C. with shaking at 200 rpm overnight. The culture media used was 900 mL H2O; 10.4 g RPMI 1640 (with L-glutamine and a pH indicator but without bicarbonate); 34.5 g MOPS and 18 g glucose. The pH of the media was adjusted to 7.0 with 1 M sodium hydroxide.
(§6) Solutions of the compound to be tested were prepared by dissolving the compound in DMSO and subsequently into media to the desired concentrations. 200 μL of compound solution was then added to the wells of the 96-well plate using a serial dilution method row-by row of the plate to give a compound concentration gradient across the plate of from 128 μg/mL to 0.25 μg/mL. The last two rows of each plate were control rows containing the culture media alone and the media plus fungi.
(§7) The fungi starter cultures were diluted 1:10 in water in cuvettes. This was then further diluted to an optical density (OD600) of 0.01 in media. 100 μL of the fungi was added to each well giving a starting concentration of fungus of 0.5-5×10^5/mL. One species of fungus was used on each plate. The plates were then held at 37° C. for 24 hours.
(§8) A plate reader was used to measure growth in each well at OD530 nm and the MIC was determined for each test compound. The MIC is defined as the lowest concentration giving rise to inhibition of ≥50% of that of the drug-free control well containing the fungus and media.

C. glabrata NCPF8018 = assay: Candida panel MIC, serial dilution in 96-well plates; assay type: cell-based, Candida glabrata; conditions: Nakaseomyces glabratus
Outline: as §2

C. auris 8971 = assay: as above; assay type: cell-based, Candida auris
Outline: as §3

C. auris 8977 = assay: as above; assay type: cell-based, Candida auris
Outline: as §3

C. auris 8984 = assay: as above; assay type: cell-based, Candida auris
Outline: as §3

C. albicans 3363 = assay: Candida albicans panel MIC; assay type: cell-based; conditions: Table 6, Candida albicans panel
Method: as §4, §5, §6, §7, §8
(§9) The compounds shown in Table 6 were tested against a further panel of Candida albicans.

C. albicans 3645 = assay: Candida albicans panel MIC; assay type: cell-based; conditions: Table 6, Candida albicans panel
Method: as §4, §5, §6, §7, §8, §9

C. albicans 3880 = assay: Candida albicans panel MIC; assay type: cell-based; conditions: Table 6, Candida albicans panel
Method: as §4, §5, §6, §7, §8, §9

C. albicans 3881 = assay: Candida albicans panel MIC; assay type: cell-based; conditions: Table 6, Candida albicans panel
Method: as §4, §5, §6, §7, §8, §9

C. albicans 3882 = assay: Candida albicans panel MIC; assay type: cell-based; conditions: Table 6, Candida albicans panel
Method: as §4, §5, §6, §7, §8, §9

C. albicans 3990 = assay: Candida albicans panel MIC; assay type: cell-based; conditions: Table 6, Candida albicans panel
Method: as §4, §5, §6, §7, §8, §9

C. albicans 8112 = assay: Candida albicans panel MIC; assay type: cell-based; conditions: Table 6, Candida albicans panel
Method: as §4, §5, §6, §7, §8, §9

[1] = Candida albicans, Table 4, common panel, 24 hours, ≥50% inhibition
[2] = NCPF3876, Table 4, common panel, 24 hours, ≥50% inhibition, read-out: MIC C. krusei NCPF3876
[3] = NCPF3209, Table 4, common panel, 24 hours, ≥50% inhibition, read-out: MIC C. parapsilosis NCPF3209
[4] = TDG2211, Table 4, extended panel, 24 hours, ≥50% inhibition, read-out: MIC Candida auris TDG2211
[5] = TDG2506, Table 4, extended panel, 24 hours, ≥50% inhibition, read-out: MIC Candida auris TDG2506
[6] = NCPF8760, Table 4, common panel, 24 hours, ≥50% inhibition, read-out: MIC C. tropicalis NCPF8760

SMILES	MIC (C. albicans NCPF3281; [1]) [µg/mL]	MIC (C. krusei NCPF3876; [2]) [µg/mL]	MIC (C. parapsilosis NCPF3209; [3]) [µg/mL]	MIC (Candida auris TDG2211; [4]) [µg/mL]	MIC (Candida auris TDG2506; [5]) [µg/mL]	MIC (C. auris TDG1912) [µg/mL]	MIC (C. tropicalis NCPF8760; [6]) [µg/mL]	MIC (Candida auris TDG1102) [µg/mL]	MIC (Candida auris TDG2512) [µg/mL]	Activity against Candida auris including resistant strains (panel of Candida species)	further results
COc1ccc(-c2ccc(NC3CCN(CC(O)(Cn4cncn4)c4ccc(F)cc4F)CC3)cc2)cc1 (stereo not shown) [Example 4, 2-(2,4-difluorophenyl)-1-(4-((4′-methoxy-[1,1′-biphenyl]-4-yl)amino)piperidin-1-yl)-3-(1H-1,2,4-triazol-1-yl)propan-2-ol]	0.008 (≈ 0.0154 µM)	0.004 to 0.125 (≈ 0.0077 to 0.241 µM)	0.004 (≈ 0.0077 µM)	0.006 (≈ 0.0115 µM)	≤ 0.003	0.06 (≈ 0.115 µM)	0.25 (≈ 0.481 µM)	0.006 (≈ 0.0115 µM)	≤ 0.003	highly active	–
N#Cc1ccccc1-c1ccc(NC2CCN(CC(O)(Cn3cncn3)c3ccc(F)cc3F)CC2)cc1 (stereo not shown) [Example 5, 4′-((1-(2-(2,4-difluorophenyl)-2-hydroxy-3-(1H-1,2,4-triazol-1-yl)propyl)piperidin-4-yl)amino)-[1,1′-biphenyl]-2-carbonitrile]	0.002 to 0.004 (≈ 0.00389 to 0.00777 µM)	0.002 to 0.125 (≈ 0.00389 to 0.243 µM)	0.004 (≈ 0.00777 µM)	0.006 (≈ 0.0117 µM)	0.006 (≈ 0.0117 µM)	0.03 (≈ 0.0583 µM)	0.008 to 0.25 (≈ 0.0155 to 0.486 µM)	≤ 0.003	≤ 0.003	highly active	MIC (C. glabrata NCPF8018; NCPF8018, Table 4, common panel, 24 hours, ≥50% inhibition, read-out: MIC C. glabrata NCPF8018): 0.125 µg/mL (≈ 0.243 µM)
C[C@@H](c1ncncc1F)[C@](O)(Cn1cncn1)c1ccc(F)cc1F [Voriconazole, voriconazole, reference compound]	–	–	–	> 128	2 (≈ 5.73 µM)	> 32	–	> 128	> 128	–	MIC (C. albicans NCPF3281; Table 6, Candida albicans panel): ≤ 0.007 µg/mL; MIC (C. glabrata NCPF8018; NCPF8018, read-out: MIC C. Glabrata NCPF8018): 1 µg/mL (≈ 2.86 µM); MIC (C. krusei NCPF3876; NCPF3876, read-out: MIC C. Krusei NCPF3876): 0.5 to 2 µg/mL (≈ 1.43 to 5.73 µM); MIC (C. parapsilosis NCPF3209; NCPF3209, read-out: MIC C. Parapsilosis NCPF3209): ≤ 0.25 µg/mL; MIC (Candida auris TDG2211; TDG2211, read-out: MIC C. auris 2211): > 128 µg/mL; MIC (Candida auris TDG2506; TDG2506, read-out: MIC C. auris 2506): 2 µg/mL (≈ 5.73 µM); MIC (C. tropicalis NCPF8760; NCPF8760, read-out: MIC C. Tropicalis NCPF8760): 4 µg/mL (≈ 11.5 µM); MIC (C. auris 8971; Candidozyma auris, 8971, read-out: MIC C. auris 8971): > 32 µg/mL; MIC (C. auris 8971; Candidozyma auris, 8971, Table 4, extended panel, 24 hours, ≥50% inhibition, read-out: MIC C. auris 8971): > 32 µg/mL; MIC (C. auris 8977; Candidozyma auris, 8977, read-out: MIC C. auris 8977): 32 µg/mL (≈ 91.6 µM); MIC (C. auris 8977; Candidozyma auris, 8977, Table 4, extended panel, 24 hours, ≥50% inhibition, read-out: MIC C. auris 8977): 32 µg/mL (≈ 91.6 µM); MIC (C. auris 8984; Candidozyma auris, 8984, read-out: MIC C. auris 8984): > 128 µg/mL; MIC (C. auris 8984; Candidozyma auris, 8984, Table 4, extended panel, 24 hours, ≥50% inhibition, read-out: MIC C. auris 8984): > 128 µg/mL; MIC (C. albicans 3363): 1 µg/mL (≈ 2.86 µM); MIC (C. albicans 3645): ≤ 0.0078 µg/mL; MIC (C. albicans 3880): 0.25 µg/mL (≈ 0.716 µM); MIC (C. albicans 3881): 0.25 µg/mL (≈ 0.716 µM); MIC (C. albicans 3882): 0.25 µg/mL (≈ 0.716 µM); MIC (C. albicans 3990): 0.25 µg/mL (≈ 0.716 µM); MIC (C. albicans 8112): ≤ 0.00781 µg/mL
